Assay results taken from patent publication US8729009B2, “Lysine compounds and their use in site- and chemoselective modification of peptides and proteins” (Stichting Het Nederlands Kanker Instituut, priority 2009, dated 2014).

Assay: Solubility of the thiolysine-modified peptides in the ligation buffer
Format: physicochemical
Conditions: Tris-HCl pH 7.5 buffer used during the ligation reaction
Source text: This is not surprising as this peptide is made up for ≈50% of hydrophobic amino acids and contains 3 beta-strands in the native PCNA protein (see Supporting Information). Besides performing the ubiquitin ligations with an excess of peptide (rxn 1-3 and 6-16, FIGS. 6 and 7), it was also observed that the use of (roughly) equimolar amounts of ubiquitin and peptide (rxn 4, 5 FIG. 6 and FIGS. 8-10) allowed ligation. In order to be able to develop the here presented ligation methodology for solid phase peptide synthesis, with the peptide being anchored to the solid support, it is important to fully consume all peptide. In order to confirm that a polar organic solvent is compatible with the reaction conditions, we repeated the ubiquitin ligation of the H2B peptide TKAVTK*YTSSK, using a DMSO stock of the peptide, up to a final concentration of 10% DMSO (rxn 14-16, FIG. 7).

For “GDAWISC*AK*DGVKFSASGELGNGNIKLSQ [Peptide 1]”, the solubility was “only soluble in polar organic solvents such as DMF and DMSO”.
